Data taken from patent publication US20120156648A1, “APPARATUS AND METHOD FOR DELIVERING A THERAPEUTIC AGENT TO DENTAL TISSUE” (BUCKEYE DENTAL, LLC, priority 2010, published 2012).

Experiment: In vitro model of drug delivery: HP gel into extracted human teeth by MACROESIS vs diffusion, HP eluted into water measured by colorimetric kit / UV-Vis at 550 nm
Format: in vitro ADME
Conditions: for HP concentration in receiving medium (distilled water): below threshold of reliable detection, excluded from analysis
Description: MACROESIS™ drug delivery system uses an AC electrical field to push active pharmaceutical agents through biological membranes, such as peroxide gels into the layers of tooth enamel. Current methods of chair-side whitening involve applying a gel which is either self-activating, or activated by heat or UV. Another alternative involves custom trays containing the whitening agent obtained from a dentist used over a 7-10 day period at home (30 min to 2 hours per application). An in vitro model of drug delivery was used in a validity study investigating the delivery of a 35% Carbamide Peroxide gel into extracted human teeth by MACROESIS™.
Fourteen (14) freshly extracted human teeth without detectable caries or restoration were stored in distilled water at 4° C. and used within 1 month of extraction. Teeth were randomly assigned to the diffusion experimental group (6 teeth) or enhanced electrochemical delivery (MACROESIS™) experimental group (6 teeth). Two teeth were randomly assigned to a control group. The experiment was run in two rounds of six teeth each (3 from each treatment group) approximately two weeks apart to show repeatability of results.
The diffusion group received: 66±1 mg 6% HP gel applied evenly to the tooth surface for 20 minutes. The MACROESIS™ group received: 66±1 mg 6% HP gel applied evenly to the tooth surface for 20 minutes using the electrochemical drug delivery device and electrode (FIG. 5A-C). The control group contained one control tooth subjected to the diffusion treatment and one control tooth subjected to the MACROESIS™ treatment.
Following treatment, the teeth were rinsed twice in distilled water and dried. The outer surface of the teeth was covered with two layers of clear nail varnish to fill any defects. […]
The amount of H2O2 that diffused from the dentin was measured by a colorimetric oxidation-reduction reaction kit (HYDROGEN PEROXIDE CHEMets®, VACUettes® and Vacu-vials®, CHEMetrics, Inc., Calverton, Va.). HP concentration was measured by UV-Vis spectroscopy at 550 nm.

OO [HP, H2O2]
HP concentration in receiving medium (distilled water) (1-hour samples): < 0.1 PPM
HP concentration in receiving medium (distilled water) (48-hour samples): < 0.1 PPM
time in which the majority of the HP eluted from the teeth into the water (receiving medium removed at 1 hour, 24 hours and 48 hours): between 1 hour and 24 hours
